Measurements from ChEMBL document CHEMBL1201862, “PubChem BioAssay data set” (2004).
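Where inhibition never reached the appropriate level, the endpoint shown equals the highest concentration tested. Otherwise, values were interpolated linearly from a five-concentration, 48-hour dose response in 96-well plates. GI50 = concentration required for 50% inhibition of growth.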 Active and inactive are the calls of the source. No stated cut-off is given here; in the data, active = GI50 up to about 1.1 µM and inactive = higher.

Key:
Test in all cases: growth of human tumour cells (NCI), 48 h
786-0 = tested on: 786-0
A498 = tested on: A498
A549 = tested on: A549
ACHN = tested on: ACHN
CAKI-1 = tested on: CAKI-1
CCRF-CEM = tested on: CCRF-CEM
COLO 205 = tested on: COLO 205
DLD-1 = tested on: DLD-1
DMS-114 = tested on: DMS-114
DMS-273 = tested on: DMS-273
EKVX = tested on: EKVX
HCT-116 = tested on: HCT-116
HCT-15 = tested on: HCT-15
HL-60 = tested on: HL-60
HOP-18 = tested on: HOP-18
HOP-62 = tested on: HOP-62
HOP-92 = tested on: HOP-92
HT-29 = tested on: HT-29
IGROV-1 = tested on: IGROV-1
K562 = tested on: K562
KM-20L2 = tested on: KM-20L2
KM12 = tested on: KM12
LOX IMVI = tested on: LOX IMVI
LXFL 529 = tested on: LXFL 529
M14 = tested on: M14
M19-MEL = tested on: M19-MEL
MOLT-4 = tested on: MOLT-4
Malme-3M = tested on: Malme-3M
NCI-H226 = tested on: NCI-H226
NCI-H23 = tested on: NCI-H23
NCI-H460 = tested on: NCI-H460
NCI-H522 = tested on: NCI-H522
OVCAR-3 = tested on: OVCAR-3
OVCAR-4 = tested on: OVCAR-4
OVCAR-5 = tested on: OVCAR-5
OVCAR-8 = tested on: OVCAR-8
RPMI-8226 = tested on: RPMI-8226
RXF 393 = tested on: RXF 393
SF-268 = tested on: SF-268
SF-295 = tested on: SF-295
SF-539 = tested on: SF-539
SK-MEL-28 = tested on: SK-MEL-28
SK-MEL-2 = tested on: SK-MEL-2
SK-MEL-5 = tested on: SK-MEL-5
SK-OV-3 = tested on: SK-OV-3
SN12C = tested on: SN12C
SNB-19 = tested on: SNB-19
SNB-75 = tested on: SNB-75
SNB-78 = tested on: SNB-78
SR = tested on: SR
SW-620 = tested on: SW-620
TK-10 = tested on: TK-10
U-251 = tested on: U-251
UACC-257 = tested on: UACC-257
UACC-62 = tested on: UACC-62
UO-31 = tested on: UO-31
XF498 = tested on: XF498
HCC 2998 = tested on: HCC 2998
RXF 631 = tested on: RXF 631

Measured: GI50

COc1ccc2c(c1)c(Cc1c(C)n(C)c3ccc(OC)cc13)c(C)n2C
> 100 µM: HCT-15
inactive: 786-0 86.1 µM | A498 > 100 µM | A549 > 100 µM | ACHN > 100 µM | CAKI-1 > 100 µM | CCRF-CEM > 100 µM | COLO 205 > 100 µM | DLD-1 > 100 µM | DMS-114 > 100 µM | DMS-273 > 100 µM | EKVX > 100 µM | HCT-116 > 100 µM | HL-60 > 100 µM | HOP-18 > 100 µM | HOP-62 > 100 µM | HOP-92 > 100 µM | HT-29 > 100 µM | IGROV-1 > 100 µM | K562 > 100 µM | KM-20L2 > 100 µM | KM12 > 100 µM | LOX IMVI > 100 µM | LXFL 529 > 100 µM | M14 > 100 µM | M19-MEL > 100 µM | MOLT-4 > 100 µM | Malme-3M > 100 µM | NCI-H226 > 100 µM | NCI-H23 > 100 µM | NCI-H460 > 100 µM | NCI-H522 34 µM | OVCAR-3 > 100 µM | OVCAR-4 > 100 µM | OVCAR-5 > 100 µM | OVCAR-8 > 100 µM | RPMI-8226 > 100 µM | RXF 393 47.8 µM | SF-268 > 100 µM | SF-295 > 100 µM | SF-539 > 100 µM | SK-MEL-28 > 100 µM | SK-MEL-2 > 100 µM | SK-MEL-5 > 100 µM | SK-OV-3 > 100 µM | SN12C > 100 µM | SNB-19 > 100 µM | SNB-75 > 100 µM | SNB-78 > 100 µM | SR > 100 µM | SW-620 > 100 µM | TK-10 > 100 µM | U-251 > 100 µM | UACC-257 > 100 µM | UACC-62 > 100 µM | UO-31 > 100 µM | XF498 > 100 µM

CN1C(=O)C2C=CC1C1CCC2N(C)C1=O (stereo not given)
inactive: 786-0 > 100 µM | A498 > 100 µM | A549 > 100 µM | CAKI-1 > 100 µM | CCRF-CEM > 100 µM | COLO 205 > 100 µM | DLD-1 > 100 µM | DMS-114 > 100 µM | DMS-273 > 100 µM | EKVX > 100 µM | HCC 2998 > 100 µM | HCT-116 > 100 µM | HL-60 > 100 µM | HOP-18 > 100 µM | HOP-92 > 100 µM | HT-29 > 100 µM | IGROV-1 > 100 µM | K562 > 100 µM | KM12 > 100 µM | LOX IMVI > 100 µM | LXFL 529 > 100 µM | M14 > 100 µM | M19-MEL > 100 µM | MOLT-4 > 100 µM | Malme-3M > 100 µM | NCI-H226 > 100 µM | NCI-H23 > 100 µM | NCI-H522 > 100 µM | OVCAR-3 > 100 µM | OVCAR-4 > 100 µM | OVCAR-5 > 100 µM | OVCAR-8 > 100 µM | RPMI-8226 > 100 µM | RXF 393 > 100 µM | RXF 631 > 100 µM | SF-268 > 100 µM | SF-295 > 100 µM | SF-539 > 100 µM | SK-MEL-28 > 100 µM | SK-MEL-2 > 100 µM | SK-MEL-5 > 100 µM | SK-OV-3 > 100 µM | SN12C > 100 µM | SNB-19 > 100 µM | SNB-75 > 100 µM | SNB-78 > 100 µM | SW-620 > 100 µM | TK-10 > 100 µM | U-251 > 100 µM | UACC-257 > 100 µM | UACC-62 > 100 µM | UO-31 > 100 µM
> 100 µM: HCT-15
